# Reference: US7138361B2, “Herbicidal heterocycles” (E. I. du Pont de Nemours and Company, priority 2000, dated 2006)
# Experiments:
# Format in all cases: in vivo
# [1] = tested on: morning glory (Ipomoea spp.); test: Test A postemergence, sprayed to runoff; design: scale not given here; conditions: Morningglory, approx. eleven days
# Protocol: (§1) Seeds of barnyardgrass (Echinochloa crus-galli), crabgrass (Digitaria spp.), giant foxtail (Setaria viridis), morning glory (Ipomoea spp.), redroot pigweed (Amaranthus retroflexus) and velvetleaf (Abutilon theophrasti) were planted into a sandy loam soil and treated preemergence by soil drench with test chemicals formulated in a non-phytotoxic solvent mixture which included a surfactant. At the same time, these crop and weed species were also treated postemergence sprayed to runoff with test chemicals formulated in the same manner. Plants ranged in height from two to eighteen cm and were in the one- to two-leaf stage for the postemergence treatment. Treated plants and untreated controls were maintained in a greenhouse for approximately eleven days, after which time all treated plants were compared to untreated controls and visually evaluated for injury. Plant response ratings, summarized in Table A, are based on a 0 to 10 scale where 0 is no effect and 10 is complete control. A dash (-) response means no test results.
# [2] = tested on: velvetleaf (Abutilon theophrasti); test: Test A postemergence, sprayed to runoff; design: scale not given here; conditions: approx. eleven days
# Protocol: as §1
# rice (Oryza saliva) [3] = test: Test C flooded paddy test; conditions: for Rice plant response rating: Flooded Paddy, scale 0 to 100, 0 no effect, 100 complete control; for Plant response rating, Rice: flooded paddy test, scale 0 to 100 (0 no effect, 100 complete control)
# In short: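 Response on a 0-to-100 scale (no effect to complete control) was assessed by eye versus controls. Plants had reached 2 leaves when treated in flooded paddy conditions. The assessment took place after 12–14 days of greenhouse growth.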
# Sunflower [4] = test: Test C preemergence; conditions: visual evaluation after 12 to 14 days
# Sunflower [5] = test: Test C preemergence; conditions: scale 0 to 100
# [6] = tested on: barnyardgrass (Echinochloa crus-galli); test: Test B flooded paddy test; conditions: Rate 1000 g/ha, scale of 0 to 100 where 0 is no effect and 100 is complete control, visually evaluated after 13 to 15 days
# In short: (§2)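 Greenhouse-held for 13 to 15 days after treatment at the 2-leaf stage, paddy-grown plants were scored visually against controls on a 0-to-100 control scale; a dash marks no test result.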
# [7] = tested on: duck salad (Heteranthera limosa); test: Test B flooded paddy test; conditions: Rate 1000 g/ha, scale of 0 to 100 where 0 is no effect and 100 is complete control, visually evaluated after 13 to 15 days
# In short: as §2
# rice (Oryza saliva) [8] = test: Test B flooded paddy test; conditions: Rate 1000 g/ha, scale of 0 to 100 where 0 is no effect and 100 is complete control, visually evaluated after 13 to 15 days
# In short: as §2
# [9] = tested on: smallflower flatsedge (Cyperus difformis); test: Test B flooded paddy test; conditions: Rate 1000 g/ha, scale of 0 to 100 where 0 is no effect and 100 is complete control, visually evaluated after 13 to 15 days
# In short: as §2
# [10] = tested on: Surinam grass (Brachiaria decumbens); test: Test C postemergence
# In short: (§3)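 Preemergence: seeds sown then treated. Postemergence: plants 2–18 cm, 1- to 4-leaf. Both with surfactant-containing solvent formulation; visual injury scored 0–100 after 12–14 d.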
# [11] = tested on: bermudagrass (Cynodon dactylon); test: Test C postemergence
# In short: as §3
# [12] = tested on: chickweed (Stellaria media); test: Test C postemergence
# In short: as §3
# corn (Zea mays) = test: Test C postemergence
# In short: as §3
# [13] = tested on: giant foxtail (Setaria faberii); test: Test C postemergence
# In short: as §3
# [14] = tested on: goosegrass (Eleusine indica); test: Test C postemergence
# In short: as §3
# [15] = tested on: lambsquarters (Chenopodium album); test: Test C postemergence
# In short: as §3
# [16] = tested on: morningglory (Ipomoea hederacea); test: Test C postemergence
# In short: as §3
# [17] = tested on: velvetleaf (Abutilon theophrasti); test: Test C postemergence
# In short: as §3
# [18] = tested on: yellow nutsedge (Cyperus esculentus); test: Test C postemergence
# In short: as §3
# [19] = Rate 62 g/ha, scale 0 to 100, 0 no effect, 100 complete control
# [20] = Rate 125 g/ha, scale 0 to 100, 0 no effect, 100 complete control
# [21] = Rate 250 g/ha, scale 0 to 100 (0 no effect, 100 complete control)
# [22] = Rate 500 g/ha, scale 0 to 100 (0 no effect, 100 complete control)
smiles,measurement,setting,value
CC(C)(C)c1ccn(C2CCN(c3cccc(I)c3)C2=O)n1 (stereo not drawn) [Compound 88],Plant response rating (visual injury vs untreated controls),[1]; Rate 500 g/ha,10
same,Plant response rating (visual injury vs untreated controls),[1]; Rate 2000 g/ha,30
same,Plant response rating (visual injury vs untreated controls),[2]; Rate 500 g/ha,0
same,Plant response rating (visual injury vs untreated controls),[2]; Rate 2000 g/ha,0
same,Rice plant response rating,rice (Oryza saliva) [3]; Rate 250 g/ha,30
same,Rice plant response rating,rice (Oryza saliva) [3]; Rate 500 g/ha,70
same,"Plant response rating, Rice",rice (Oryza saliva) [3]; Rate 62 g/ha,0
same,"Plant response rating, Rice",rice (Oryza saliva) [3]; Rate 125 g/ha,20
same,"Plant response rating (0 to 100), Sunflower",Sunflower [4]; Rate 500 g/ha,20
same,"Plant response rating, Sunflower",Sunflower [5]; Rate 62 g/ha,10
CCC(CC)c1ccn(C2SCN(c3cccc(C(F)(F)F)c3)C2=O)n1 (stereo not drawn) [Compound 25],"Plant response rating, Barnyardgrass",[6],100
same,"Plant response rating, Ducksalad",[7],100
same,"Plant response rating, Rice",rice (Oryza saliva) [8],90
same,"Plant response rating, Flatsedge",[9],100
same,"Plant response rating, Surinam grass",[10]; [19],0
same,"Plant response rating, Surinam grass",[10]; [20],0
same,"Plant response rating, Surinam grass",[10]; [21],0
same,"Plant response rating, Surinam grass",[10]; [22],0
same,"Plant response rating, Bermudagrass",[11]; [19],60
same,"Plant response rating, Bermudagrass",[11]; [20],70
same,"Plant response rating, Bermudagrass",[11]; [21],90
same,"Plant response rating, Bermudagrass",[11]; [22],90
same,"Plant response rating, Chickweed",[12]; [19],60
same,"Plant response rating, Chickweed",[12]; [20],70
same,"Plant response rating, Chickweed",[12]; [21],80
same,"Plant response rating, Chickweed",[12]; [22],90
same,"Plant response rating, Corn",corn (Zea mays); [20],0
same,"Plant response rating, Corn",corn (Zea mays); [21],20
same,"Plant response rating, Corn",corn (Zea mays); [22],30
same,"Plant response rating, Foxtail, Giant",[13]; [20],30
same,"Plant response rating, Foxtail, Giant",[13]; [21],80
same,"Plant response rating, Foxtail, Giant",[13]; [22],90
same,"Plant response rating, Goosegrass",[14]; [20],20
same,"Plant response rating, Goosegrass",[14]; [21],60
same,"Plant response rating, Goosegrass",[14]; [22],60
same,"Plant response rating, Lambsquarters",[15]; [20],90
same,"Plant response rating, Lambsquarters",[15]; [21],100
same,"Plant response rating, Lambsquarters",[15]; [22],100
same,"Plant response rating, Morningglory",[16]; [21],80
same,"Plant response rating, Morningglory",[16]; [22],100
same,"Plant response rating, Velvetleaf",[17]; [20],40
same,"Plant response rating, Velvetleaf",[17]; [21],50
same,"Plant response rating, Velvetleaf",[17]; [22],50
same,"Plant response rating, Nutsedge",[18]; [20],0
same,"Plant response rating, Nutsedge",[18]; [21],0
same,"Plant response rating, Nutsedge",[18]; [22],0
same,Rice plant response rating,rice (Oryza saliva) [3]; Rate 250 g/ha,60
same,Rice plant response rating,rice (Oryza saliva) [3]; Rate 500 g/ha,80
same,"Plant response rating, Rice",rice (Oryza saliva) [3]; Rate 62 g/ha,30
same,"Plant response rating, Rice",rice (Oryza saliva) [3]; Rate 125 g/ha,20
same,"Plant response rating (0 to 100), Sunflower",Sunflower [4]; Rate 250 g/ha,70
same,"Plant response rating, Sunflower",Sunflower [5]; Rate 31 g/ha,0
CCC(CC)c1ccn(C2SCN(c3cccc(C(F)(F)F)c3)C2=O)n1 (stereo not drawn) [Compound 21],"Plant response rating, Barnyardgrass",[6],100
same,"Plant response rating, Ducksalad",[7],100
same,"Plant response rating, Rice",rice (Oryza saliva) [8],90
same,"Plant response rating, Flatsedge",[9],100
same,"Plant response rating, Surinam grass","[10]; Rate 31 g/ha, scale 0 to 100",0
same,"Plant response rating, Surinam grass",[10]; [19],0
same,"Plant response rating, Surinam grass",[10]; [20],0
same,"Plant response rating, Bermudagrass","[11]; Rate 31 g/ha, scale 0 to 100",50
same,"Plant response rating, Bermudagrass",[11]; [19],50
same,"Plant response rating, Bermudagrass",[11]; [20],50
same,"Plant response rating, Chickweed","[12]; Rate 31 g/ha, scale 0 to 100",30
same,"Plant response rating, Chickweed",[12]; [19],50
same,"Plant response rating, Chickweed",[12]; [20],50
same,"Plant response rating, Corn","corn (Zea mays); Rate 31 g/ha, scale 0 to 100",0
same,"Plant response rating, Corn",corn (Zea mays); [20],0
same,"Plant response rating, Foxtail, Giant","[13]; Rate 31 g/ha, scale 0 to 100",0
same,"Plant response rating, Foxtail, Giant",[13]; [20],0
same,"Plant response rating, Goosegrass","[14]; Rate 31 g/ha, scale 0 to 100",0
same,"Plant response rating, Goosegrass",[14]; [20],0
same,"Plant response rating, Lambsquarters","[15]; Rate 31 g/ha, scale 0 to 100",70
same,"Plant response rating, Lambsquarters",[15]; [20],80
same,"Plant response rating, Morningglory","[16]; Rate 31 g/ha, scale 0 to 100",0
same,"Plant response rating, Morningglory",[16]; [20],60
same,"Plant response rating, Velvetleaf","[17]; Rate 31 g/ha, scale 0 to 100",20
same,"Plant response rating, Velvetleaf",[17]; [20],30
same,"Plant response rating, Nutsedge","[18]; Rate 31 g/ha, scale 0 to 100",0
same,"Plant response rating, Nutsedge",[18]; [20],0
same,Rice plant response rating,rice (Oryza saliva) [3]; Rate 250 g/ha,70
same,Rice plant response rating,rice (Oryza saliva) [3]; Rate 500 g/ha,70
same,"Plant response rating, Rice",rice (Oryza saliva) [3]; Rate 62 g/ha,0
same,"Plant response rating, Rice",rice (Oryza saliva) [3]; Rate 125 g/ha,20
same,"Plant response rating, Sunflower",Sunflower [5]; Rate 31 g/ha,20
CC(C)(C)c1ccn(C2CCN(c3cccc(SC(F)(F)F)c3)C2=O)n1 (stereo not drawn) [Compound 93],"Plant response rating, Barnyardgrass",[6],100
same,"Plant response rating, Ducksalad",[7],100
same,"Plant response rating, Rice",rice (Oryza saliva) [8],50
same,"Plant response rating, Flatsedge",[9],100
same,Rice plant response rating,rice (Oryza saliva) [3]; Rate 250 g/ha,20
same,Rice plant response rating,rice (Oryza saliva) [3]; Rate 500 g/ha,80
same,"Plant response rating, Rice",rice (Oryza saliva) [3]; Rate 62 g/ha,0
same,"Plant response rating (0 to 100), Sunflower",Sunflower [4]; Rate 500 g/ha,20
same,"Plant response rating, Sunflower",Sunflower [5]; Rate 62 g/ha,0
